Test results as given in patent publication US20050159427A1, “N-acylsulfonamide apoptosis promoters” (priority 2003, published 2005).

Tested on: A549 human non-small cell lung carcinoma cells
Experiment: Paclitaxel combination on A549 cells
Format: cell-based
Details: stated after the paclitaxel combination results on A549 and PC-3 cells

For CN(C)CC[C@@H](CSc1ccccc1)Nc1ccc(S(=O)(=O)NC(=O)c2ccc(N3CCN(Cc4ccccc4-c4ccc(Cl)cc4)CC3)cc2)cc1[N+](=O)[O-] [enantiomer of EXAMPLE 2, N-(4-(4-((4′-chloro(1,1′-biphenyl)-2-yl)methyl)piperazin-1-yl)benzoyl)-4-(((1S)-3-(dimethylamino)-1-((phenylsulfanyl)methyl)propyl)amino)-3-nitrobenzenesulfonamide], the “efficacy relative to EXAMPLE 2” value was “less efficacious”.
